Patent EP2198709A1, “Method for treating resistant animal pests” (Bayer CropScience AG, priority 2008, dated 2010)

Key:
Assay type in all cases: in vivo
[1] = test system: Nymphen von Bemisia tabaci; assay: Field trial on pepper plants, spray, against nymphs of neonicotinoid-resistant whiteflies (Almeria); conditions: sprayed 3x, 150 g ai/ha/m CH, I-5 SL 200, Imidacloprid OD 200
From the text: In Almeria (Südspanien) wurden Paprikapflanzen, die sehr stark mit Nymphen von bekanntermaßen Neonikotinoyl-resistenten Weißen Fliegen (Bemisia tabaci) infiziert waren, jeweils drei Mal im Abstand von 9 und 12 Tagen mit der Verbindung I-5 (SL 200, 150 g ai/ha/m CH (g aktive Substanz/ha/m CH, CH = Laubwand-Höhe) bzw. mit Imidacloprid (OD 200, 150 g ai/ha/m CH) besprüht. Zu verschiedenen Zeitpunkten nach der dritten Behandlung (DAC = Tage nach 3. Behandlung) wurde die Wirksamkeit (in % Abbott: Verhältnis der Anzahl Nymphen auf behandelter Pflanze / Fläche zur Anzahl Nymphen auf Kontrolle) der beiden Substanzen gegen Nymphen von Bemisia tabaci in bestimmt.

[2] = test system: Nilaparvata lugens Bayer S; assay: Spray test on infested rice seedlings (standard screening), susceptible strain Bayer S; conditions: rice seedlings sprayed, evaluation 7 days after infection
From the text: (§1) Reissetzlinge wurden mit Stämmen von Nilaparvata lugens (Bayer S und Vietnam) infiziert und mit der Verbindung I-5 bzw. mit Imidacloprid besprüht. Die Auswertung erfolgte 7 Tage nach Infektion (Standard-Screening-Verfahren).

[3] = test system: Nilaparvata lugens Vietnam; assay: Spray test on infested rice seedlings (standard screening), resistant strain Vietnam; conditions: rice seedlings sprayed, evaluation 7 days after infection
From the text: as §1

[4] = test system: Eier von Bemisia argentifolii; assay: Field trial on melon plants, spray, against eggs of neonicotinoid-resistant silverleaf whiteflies (Arizona); conditions: 150 g ai/ha/m CH, I-5 SL 100, Imidacloprid SC 192
From the text: In Arizona (USA) wurden Melonenpflanzen, die stark mit Eiern von bekanntermaßen Neonikotinoyl-resistenten Silberflügeligen Weißen Fliegen (Bemisia argentifolii) infiziert waren, jeweils zwei Mal im Abstand von 15 Tagen mit der Verbindung I-5 (SL 100, 150 g ai/ha/m CH (g aktive Substanz/ha/m CH, CH = Laubwand-Höhe) bzw. mit Imidacloprid (SC 192, 150 g ai/ha/m CH) besprüht. Zu verschiedenen Zeitpunkten nach der ersten bzw. zweiten Behandlung (DAA = Tage nach 1. Behandlung, DAB = Tage nach zweiter Behandlung) wurde die Wirksamkeit (in % Abbott: Verhältnis der Anzahl Eier auf behandelter Pflanze / Fläche zur Anzahl Eier auf Kontrolle) der beiden Substanzen gegen Eier von Bemisia argentifolii bestimmt.

[5] = test system: Bemisia tabaci SUD-S; assay: Leaf-dip bioassay, adult whiteflies, insecticide-susceptible strain SUD-S; conditions: adults, mortality after 72 h
From the text: Es wurden Versuche durchgeführt, um die überlegene Blattwirkung von Enaminocarbonylverbindungen gegen adulte Tiere eines Stamms von Bemisia tabaci zu zeigen, der bekanntermaßen resistent ist gegen Neonikotinoid-Insektizide sowie andere Insektizidklassen, einschließlich Insekten-Wachstumsregulatoren (wie Buprofezin) und Antifeedants (Substanzen, die einen Schaderreger vom Fraß abhalten) (wie Pymetrozin).
Baumwollblattscheiben (30 mm im Durchmesser) wurden für 5 sec in wässrige Lösungen technischer Insektizide, enthaltend 0,2 g/l Triton-X-100 als nicht-ionisches Benetzungsmittel, getaucht. Luftgetrocknete Blattscheiben wurden dann mit der adaxialen Seite nach unten auf ein Agarbett (12 g/l) in einer kleinen Petrischale (40 mm im Durchmesser) gelegt. Adulte Weiße Fliegen wurden mittels eines Vakuum-getriebenen Aspirators aus Aufzuchtkäfigen eingesammelt und 20 adulte Tiere wurden nach kurzer CO2-Narkose auf die Blattscheiben gelegt. Anschließend wurde jede Petrischale mit einem belüfteten Deckel verschlossen und umgedreht aufbewahrt. Nach 72 h wurde die Mortalität der Weißen Fliegen bestimmt. Jedes Insektizid wurde mindestens dreifach mit 2-oder 3-fach Bestimmungen pro Konzentration getestet.
LC50-Werte wurden aus Probit-Regressionen unter Verwendung des Computerprogramms POLO-PC 2 (LeOra Software, Berkeley, USA) berechnet.
Tabelle 1. Log-Dosis Probit Mortalitätsdaten für verschiedene Klassen von Insektiziden erhalten aus Blatt-Tauch-Bioassays gegen adulte Tiere zweier Bemisia tabaci Stämme, SUD-S und ESP-00, die bekanntermaßen Insektizid-empfindlich (SUD-S) bzw. multiresistent (ESP-00) sind (Stumpf und Nauen, 2003). Mortalität wurde nach 72 h bestimmt, mit Ausnahme von Buprofezin (10-12 d).

[6] = test system: Nilaparvata lugens; assay: Field trial on rice plants, spray, against neonicotinoid-resistant brown planthoppers (Thailand); conditions: 50 g ai/ha/m CH, both SL 100
From the text: In Banglane (Thailand) wurden Reispflanzen, die stark mit bekanntermaßen Neonikotinoyl-resistenten Braunrückigen Reiszikaden (Nilaparvata lugens) infiziert waren, jeweils zwei Mal im Abstand von 14 Tagen mit der Verbindung 1-5 (SL 100, 50 g ai/ha/m CH (g aktive Substanz/ha/m CH, CH = Laubwand-Höhe) bzw. mit Imidacloprid (SL 100, 50 g ai/ha/m CH) besprüht. Zu verschiedenen Zeitpunkten nach der ersten bzw. zweiten Behandlung (DAA = Tage nach 1. Behandlung, DAB = Tage nach zweiter Behandlung) wurde die Wirksamkeit (in % Abbott: Verhältnis der Anzahl Tier auf behandelter Pflanze / Fläche zur Anzahl Tiere auf Kontrolle) der beiden Substanzen gegen Nilaparvata lugens bestimmt.

[7] = test system: Trialeurodes vaporariorum; assay: Trial on poinsettia, spray, against neonicotinoid-resistant greenhouse whiteflies (Netherlands); conditions: 150 g ai/ha/m CH, SL 100, Imidacloprid SL 200
From the text: In Zwaagdiyk (Niederlande) wurden Weihnachtssterne, die stark mit bekanntermaßen Neonikotinoyl-resistenten Gewächshaus-Weißen Fliegen (Trialeurodes vaporariorum) infiziert waren, jeweils zwei Mal im Abstand von 7 Tagen mit der Verbindung 1-5 (SL 100, 150 g ai/ha/m CH (g aktive Substanz/ha/m CH, CH = Laubwand-Höhe) bzw. mit Imidacloprid (SL 200, 150 g ai/ha/m CH) besprüht. Zu verschiedenen Zeitpunkten nach der ersten bzw. zweiten Behandlung (DAA = Tage nach 1. Behandlung, DAB = Tage nach zweiter Behandlung) wurde die Wirksamkeit (in % Abbott: Verhältnis der Anzahl Tiere auf behandelter Pflanze / Fläche zur Anzahl Tiere auf Kontrolle) der beiden Substanzen gegen Trialeurodes vaporariorum bestimmt.

[8] = 7 DAC (days after 3rd treatment)
[9] = 7 DAB (days after 2nd treatment), sprayed 2x
[10] = 8 DAA (days after 1st treatment), sprayed

Row | Structure (SMILES) | Effizienz [1, 8] | Effizienz ([1]; 14 DAC) | Effizienz ([1]; 21 DAC) | Effizienz ([1]; 28 DAC) | Bayer S (empfindlicher Stamm) LC50 [2] | Vietnam (resistenter Stamm) LC50 [3] | Effizienz [4, 9] | Effizienz [4, 10] | Effizienz ([4]; 13 DAB, sprayed 2x) [% Abbott] | Effizienz ([4]; 14 DAA, sprayed) | SUD-S LC50 [5] [ppm] | Effizienz ([6]; 1 DAA, sprayed) | Effizienz ([6]; 3 DAA, sprayed) | Effizienz ([6]; 5 DAA, sprayed) | Effizienz ([6]; 7 DAA, sprayed) | Effizienz ([6]; 7 DAB, sprayed 2x) | Effizienz ([6]; 14 DAA, sprayed) | Effizienz ([6]; 14 DAB, sprayed 2x) | Effizienz ([7]; 7 DAA, sprayed) | Effizienz ([7]; 7 DAB, sprayed 2x) | further results
1 | O=C1C=C(N(Cc2ccc(Cl)nc2)CC(F)F)CO1 [Verbindung I-5, 4-{[(6-Chlorpyrid-3-yl)methyl](2,2-difluorethyl)amino}furan-2(5H)-on] | 99,2 % Abbott | 98,5 % Abbott | 97,4 % Abbott | 84,3 % Abbott | 0,36 g/ha | 3,2 g/ha | 81,6 % Abbott | 97,6 % Abbott | 69 | 72,9 % Abbott | 6.7 | 19 % Abbott | 39 % Abbott | 66,8 % Abbott | 70,3 % Abbott | 69,5 % Abbott | 65,7 % Abbott | 55,9 % Abbott | 23 % Abbott | 50,9 % Abbott | Effizienz ([7]; 14 DAB, sprayed 2x): 39,1 % Abbott; Effizienz ([7]; 21 DAB, sprayed 2x): 62,2 % Abbott; Effizienz ([7]; 29 DAB, sprayed 2x): 50,9 % Abbott
2 | O=[N+]([O-])NC1=NCCN1Cc1ccc(Cl)nc1 [Imidacloprid] | 76,7 % Abbott | 75,3 % Abbott | 75,1 % Abbott | 1,3 % Abbott | 0,0049 g/ha | 13 g/ha | 30,2 % Abbott | 66,1 % Abbott | 0 | 69,5 % Abbott | 0.82 | 19,6 % Abbott | 24,9 % Abbott | 36,5 % Abbott | 26,6 % Abbott | 19,8 % Abbott | 17,8 % Abbott | 26,4 % Abbott | 11,4 % Abbott | 9,9 % Abbott | Effizienz ([7]; 14 DAB, sprayed 2x): 0 % Abbott; Effizienz ([7]; 21 DAB, sprayed 2x): 3,7 % Abbott; Effizienz ([7]; 29 DAB, sprayed 2x): 18,6 % Abbott
